The subject of experiment [1] is human RPE cells. To be noted: human RPE cells transfected with pAlu. The procedure: All cell cultures were maintained at 37° C. and 5% CO2. Primary mouse RPE cells were isolated as previously described (Yang et al., 2009) and grown in Dulbecco Modified Eagle Medium (DMEM) supplemented with 20% FBS and standard antibiotics concentrations. Primary human RPE cells were isolated as previously described (Yang et al., 2008) and maintained in DMEM supplemented with 10% FBS and antibiotics. HeLa cells were maintained in DMEM supplemented with 20% FBS and standard antibiotics concentrations. THP-1 cells were cultured in RPMI 1640 medium supplemented with 10% FBS and antibiotics.
MTS assays were performed using the CellTiter 96 AQueous One Solution Cell Proliferation Assay (Promega) according to the manufacturer's instructions. For examining the cytoprotective effect of glycine in Alu RNA induced cell death, human RPE cells were transfected with pNull/pAlu. At 6 h post-transfection the cells were incubated with complete media containing glycine (5 mM) or vehicle, and cell viability was assessed after 24 h. Similarly, human RPE cells primed with LPS (5 μg/ml for 6 h) were treated with ATP (25 μM) in the presence of glycine containing media (5 mM). 30 min post ATP cell viability was assessed as described above.
MTS assays were performed using the CellTiter 96 AQueous One Solution Cell Proliferation Assay (Promega) according to the manufacturer's instructions.

Experiment [2] deals with Dicer1 f/f mouse RPE cells. Kind of experiment: Loss of viability of Dicer1 f/f mouse RPE cells treated with Ad-Cre. The experiment is classed as cell-based. As to the method: Cells were plated at density of 15×10^3/cm^2 and after 16 h, at approximately 50% confluence, were infected with AdCre or AdNull (Vector Laboratories) with a multiplicity of infection of 1,000.
The test system of experiment [3] is miRNA. Kind of experiment: miRNA abundance in Dicer1-depleted mouse RPE cells. It is filed as cell-based. The source says: Total RNA containing miRNAs was polyadenylated and reverse transcribed using universal primer using the All-In-One miRNA q-RT-PCR Detection Kit (GeneCopoeia) according to the manufacturer's specifications using a universal reverse primer in combination with the following forward primers: mouse miR-184 (5′-[…]-3′); mouse miR-221/222 (5′-[…]-3′); mouse miR-320a (5′-[…]-3′), and mouse miR-484 (5′-[…]-3′). miRNA levels were normalized to levels of U6 snRNA (5′-[…]-3′) using the 2^−ΔΔCt method. Detection was achieved by SYBR green qPCR with the following conditions: 95° C. for 10 min followed by 40 cycles of 95° C. for 10 s, 60° C. for 20 s and 72° C. for 20 s. Amplicon specificity was assessed by melt curve analysis and unique bands by agarose gel electrophoresis.

For experiment [4], the system named is human RPE cells. The experiment can be described thus: Loss of human RPE cell viability induced by DICER1 antisense. The experiment is classed as cell-based.
Experiment [5] deals with RPE. The experiment can be described thus: Alu RNA-induced RPE degeneration in wild-type mice, inhibitors given intravitreously. It is filed as in vivo. To be noted: WT mice; subretinal Alu RNA; inhibitor intravitreous. The procedure: Subretinal injection and imaging. Subretinal injections (1 μL) were performed using a Pico-Injector (PLI-100, Harvard Apparatus). Plasmids were transfected in vivo using 10% Neuroporter (Genlantis). Fundus imaging was performed on a TRC-50 IX camera (Topcon) linked to a digital imaging system (Sony). RPE flat mounts were immunolabeled using antibodies against zonula occludens-1 (Invitrogen).
Retinal photographs of dilated mouse eyes were taken with a TRC-50 IX camera (Topcon) linked to a digital imaging system (Sony).
Human eyes fixed in 2-4% paraformaldehyde were prepared as eyecups, cryoprotected in 30% sucrose, embedded in optimal cutting temperature compound (Tissue-Tek OCT; Sakura Finetek), and cryosectioned into 10 μm sections. Depigmentation was achieved using 0.25% potassium permanganate and 0.1% oxalic acid. Immunohistochemical staining was performed with the rabbit antibody against NLRP3 (1:100, Sigma Aldrich) or rabbit antibody against Caspase-1 (prediluted, AbCam). Isotype IgG was substituted for the primary antibody to assess the specificity of the staining. Bound antibody was detected with biotin-conjugated secondary antibodies, followed by incubation with ABC reagent and visualized by Vector Blue (Vector Laboratories). Levamisole (Vector Laboratories) was used to block endogenous alkaline phosphatase activity. Slides were washed in PBS, counterstained with neutral red (Fisher Scientific), rinsed with deionized water, air dried, and then mounted in Vectamount (Vector Laboratories). Fluorescent labeling of human tissue was performed with the rabbit antibody against PYCARD (1:50, Clone N-15, Santa Cruz Biotechnology) Immunolabeling was visualized by fluorescently conjugated anti-rabbit secondary antibody (Invitrogen). Tissue autofluorescence was quenched by incubating the sections in 0.3% Sudan black (Fisher Scientific). Sections were mounted in Vectashield with DAPI (Vector Laboratories). Mouse RPE/choroid flat mounts were fixed with 4% paraformaldehyde or 100% methanol, stained with rabbit antibodies against human zonula occludens-1 (1:100, Invitrogen) and visualized with Alexa594 (Invitrogen). All images were obtained using the Leica SP-5 or Zeiss Axio Observer Z1 microscopes.
Subretinal injections (1 μL) in mice were performed using a Pico-Injector (PLI-100, Harvard Apparatus). In vivo transfection of plasmids coding for two different Alu sequences (pAlu) or empty control vector (pNull) (Bennett et al., 2008; Kaneko et al., 2011; Shaikh et al., 1997) was achieved using 10% Neuroporter (Genlantis). AAV1-BEST1-Cre (Alexander and Hauswirth, 2008) or AAV1-BEST1-GFP were injected at 1.0×10^11 pfu/mL and in vitro transcribed Alu RNA was injected at 0.3 mg/mL.
siRNAs formulated in siRNA buffer (20 mM KCL, 0.2 mM MgCl2 in HEPES buffer at pH 7.5; Dharmacon) or phosphate buffered saline (PBS; Sigma-Aldrich); the TLR4 antagonist Ultra Pure Rhodobacter sphaeroides LPS (LPS-RS, InvivoGen), a peptide inhibitor of MyD88 homodimerization IMG-2005 (IMGENEX), control inhibitor (IMGENEX), recombinant IL-18 (Medical & Biological Laboratories), neutralizing rat antibodies against mouse IL-1β (IMGENEX), neutralizing rat antibodies against mouse IL-18 (Medical & Biological Laboratories), isotype control IgGs (R&D Systems or eBioscience as appropriate), Caspase-1 inhibitor Z-WEHD-FMK (R&D Systems), Caspase control inhibitor Z-FA-FMK (R&D Systems), DPI (Enzo Life Sciences), Mito-TEMPO (Enzo Life Sciences), MitoQ and dTPP (both adsorbed to cyclodextrin and provided by M.P. Murphy, MRC Mitochondrial Biology Unit), and gp91ds-tat and scrambled gp91 ds-tat (both Anaspec), were dissolved in phosphate buffered saline (PBS; Sigma-Aldrich) or dimethyl sulfoxide (DMSO; Sigma-Aldrich), and injected into the vitreous humor in a total volume of 1 μL with a 33-gauge Exmire microsyringe (Ito Corporation). […] As a control, Luc siRNA-chol (17+2 nt) was used with identical dosages.

Like-named read-outs stand apart in the source and are kept apart here.

Take “DRQIKIWFQNRRMKWKKRDVLPGT [MyD88 inhibitory peptide]”: the “pAlu-induced human RPE cell death / loss of cell viability” value was “inhibited cell death” in experiment [1] (listed as MyD88-inhibitory peptide) and “rescued” in experiment [1] (listed as MyD88i). The “loss of cell viability in Dicer1 f/f mouse RPE cells treated with Ad-Cre” value in experiment [2] is “rescues”. Besides, the “miRNA abundance versus control peptide” value in experiment [3] is “No significant difference”. Moreover, the “loss of human RPE cell viability induced by DICER1 antisense (AS)” value in experiment [4] is given as “rescues”. Also, in experiment [5], the “Alu RNA-induced RPE degeneration” value is on record as “prevented RPE degeneration”.

The values are drawn from patent US9453226B2, “Protection of cells from Alu-RNA-induced degeneration and inhibitors for protecting cells” (UNIVERSITY OF KENTUCKY RESEARCH FOUNDATION, priority 2011, dated 2016).
